Laboratory results reported in patent US20230160007A1, “KIT FOR EVALUATING SENSITIVITY OF PATIENT TO MET INHIBITOR” (Beijing Neurosurgical Institute, priority 2020, published 2023).

Columns and labels:
Type in all cases: cell-based, human
[1] = system: glioblastoma PDC sample A; test: CCK-8 viable count of glioblastoma PDC sample A after drug treatment; details: for Living cell proportion (a value relative to CCK8): PDC sample A, 72 h
Method: (§1) Enzymolysis was separately carried out on the four collected glioblastoma samples to obtain glioblastoma PDC samples A, B, C and D.
(§2) The glioblastoma PDC samples A, B, C and D were taken, re-suspended by using a special culture medium, and then respectively inoculated into a 96-well cell culture plate, so that each culture well contained 3000 cells. After inoculation was completed, the 96-well cell culture plate was placed in an incubator containing 5% CO2 at 37° C., and incubation was performed for 24 h. […] After the drug was added, the incubation was continued to be performed for 72 h, then the viable count in each culture well was measured by using CCK-8, and the results are shown in Table 1, Table 2, FIG. 11 and FIG. 12.

[2] = system: glioblastoma PDC sample C; test: CCK-8 viable count of glioblastoma PDC sample C after drug treatment; details: for Living cell proportion (a value relative to CCK8): 72 h
Method: as §1
(§3) The glioblastoma PDC samples A, B, C and D were taken, re-suspended by using a special culture medium, and then respectively inoculated into a 96-well cell culture plate, so that each culture well contained 3000 cells. After inoculation was completed, the 96-well cell culture plate was placed in an incubator containing 5% CO2 at 37° C., and incubation was performed for 24 h.

[3] = system: glioblastoma PDC sample D; test: CCK-8 viable count of glioblastoma PDC sample D after drug treatment; details: for Living cell proportion (a value relative to CCK8): 72 h
Method: as §1, §2

[4] = system: glioblastoma PDC sample B; test: CCK-8 viable count of glioblastoma PDC sample B after drug treatment; details: for Living cell proportion (a value relative to CCK8): PDC sample B, 72 h
Method: as §1, §3

C[C@@H](Oc1cc(-c2cnn(C3CCNCC3)c2)cnc1N)c1c(Cl)ccc(F)c1Cl [crizotinib]
sensitivity of the glioblastoma PDC sample to the drug ([1]; PDC sample A (MET exon 10 and exon 19 deleted), in words): sensitive
Living cell proportion (a value relative to CCK8) ([1]; crizotinib 0.5 μM): 0.824
Living cell proportion (a value relative to CCK8) ([1]; crizotinib 1 μM): 0.5684
Living cell proportion (a value relative to CCK8) ([1]; crizotinib 1.5 μM): 0.4624
Living cell proportion (a value relative to CCK8) ([1]; crizotinib 2 μM): 0.3834
Living cell proportion (a value relative to CCK8) ([1]; crizotinib 3 μM): 0.3316
Living cell proportion (a value relative to CCK8) ([1]; crizotinib 6 μM): 0.2663
Living cell proportion (a value relative to CCK8) ([1]; crizotinib 9 μM): 0.2482
Living cell proportion (a value relative to CCK8) ([1]; crizotinib 12 μM): 0.2387
Living cell proportion (a value relative to CCK8) ([1]; crizotinib 15 μM): 0.2518
Living cell proportion (a value relative to CCK8) ([2]; crizotinib 0.5 μM): 0.9496
Living cell proportion (a value relative to CCK8) ([2]; crizotinib 1 μM): 0.8619
Living cell proportion (a value relative to CCK8) ([2]; crizotinib 2 μM): 0.8082
Living cell proportion (a value relative to CCK8) ([2]; crizotinib 6 μM): 0.6643
Living cell proportion (a value relative to CCK8) ([2]; crizotinib 9 μM): 0.4383
Living cell proportion (a value relative to CCK8) ([2]; crizotinib 12 μM): 0.4003
Living cell proportion (a value relative to CCK8) ([2]; crizotinib 15 μM): 0.3824
sensitivity of the glioblastoma PDC sample to the drug ([2]; in words): sensitive
Living cell proportion (a value relative to CCK8) ([3]; crizotinib 0.5 μM): 0.9247
Living cell proportion (a value relative to CCK8) ([3]; crizotinib 1 μM): 0.8162
Living cell proportion (a value relative to CCK8) ([3]; crizotinib 1.5 μM): 0.7327
Living cell proportion (a value relative to CCK8) ([3]; crizotinib 2 μM): 0.6986
Living cell proportion (a value relative to CCK8) ([3]; crizotinib 3 μM): 0.7544
Living cell proportion (a value relative to CCK8) ([3]; crizotinib 6 μM): 0.5995
Living cell proportion (a value relative to CCK8) ([3]; crizotinib 9 μM): 0.4381
Living cell proportion (a value relative to CCK8) ([3]; crizotinib 12 μM): 0.3812
Living cell proportion (a value relative to CCK8) ([3]; crizotinib 15 μM): 0.4752
sensitivity of the glioblastoma PDC sample to the drug ([3]; in words): sensitive
sensitivity of the glioblastoma PDC sample to the drug ([4]; PDC sample B (MET exon 10 deleted), in words): sensitive
Living cell proportion (a value relative to CCK8) ([4]; crizotinib 0.5 μM): 0.9128
Living cell proportion (a value relative to CCK8) ([4]; crizotinib 1 μM): 0.7978
Living cell proportion (a value relative to CCK8) ([4]; crizotinib 1.5 μM): 0.7125
Living cell proportion (a value relative to CCK8) ([4]; crizotinib 6 μM): 0.3689
Living cell proportion (a value relative to CCK8) ([4]; crizotinib 9 μM): 0.3059
Living cell proportion (a value relative to CCK8) ([4]; crizotinib 12 μM): 0.2806
Living cell proportion (a value relative to CCK8) ([4]; crizotinib 15 μM): 0.2769

Cn1nnc2c(C(N)=O)ncn2c1=O [TMZ, temozolomide]
Living cell proportion (a value relative to CCK8) ([1]; TMZ 50 μM): 0.8481
Living cell proportion (a value relative to CCK8) ([1]; TMZ 100 μM): 0.8696
Living cell proportion (a value relative to CCK8) ([1]; TMZ 150 μM): 0.7968
Living cell proportion (a value relative to CCK8) ([1]; TMZ 200 μM): 0.7843
Living cell proportion (a value relative to CCK8) ([1]; TMZ 300 μM): 0.7824
Living cell proportion (a value relative to CCK8) ([1]; TMZ 400 μM): 0.6482
Living cell proportion (a value relative to CCK8) ([1]; TMZ 600 μM): 0.5261
Living cell proportion (a value relative to CCK8) ([1]; TMZ 800 μM): 0.4052
Living cell proportion (a value relative to CCK8) ([1]; TMZ 1000 μM): 0.2577
Living cell proportion (a value relative to CCK8) ([2]; TMZ 50 μM): 0.6188
Living cell proportion (a value relative to CCK8) ([2]; TMZ 100 μM): 0.5841
Living cell proportion (a value relative to CCK8) ([2]; TMZ 150 μM): 0.4536
Living cell proportion (a value relative to CCK8) ([2]; TMZ 200 μM): 0.4768
Living cell proportion (a value relative to CCK8) ([2]; TMZ 300 μM): 0.4315
Living cell proportion (a value relative to CCK8) ([2]; TMZ 400 μM): 0.3164
Living cell proportion (a value relative to CCK8) ([2]; TMZ 600 μM): 0.2817
Living cell proportion (a value relative to CCK8) ([2]; TMZ 800 μM): 0.2834
Living cell proportion (a value relative to CCK8) ([2]; TMZ 1000 μM): 0.3585
Living cell proportion (a value relative to CCK8) ([3]; TMZ 50 μM): 0.7828
Living cell proportion (a value relative to CCK8) ([3]; TMZ 100 μM): 0.647
Living cell proportion (a value relative to CCK8) ([3]; TMZ 150 μM): 0.5799
Living cell proportion (a value relative to CCK8) ([3]; TMZ 200 μM): 0.5468
Living cell proportion (a value relative to CCK8) ([3]; TMZ 300 μM): 0.4681
Living cell proportion (a value relative to CCK8) ([3]; TMZ 400 μM): 0.3984
Living cell proportion (a value relative to CCK8) ([3]; TMZ 600 μM): 0.3435
Living cell proportion (a value relative to CCK8) ([3]; TMZ 800 μM): 0.2684
Living cell proportion (a value relative to CCK8) ([3]; TMZ 1000 μM): 0.2529
Living cell proportion (a value relative to CCK8) ([4]; TMZ 50 μM): 0.8549
Living cell proportion (a value relative to CCK8) ([4]; TMZ 100 μM): 0.8905
Living cell proportion (a value relative to CCK8) ([4]; TMZ 150 μM): 0.9369
Living cell proportion (a value relative to CCK8) ([4]; TMZ 200 μM): 0.8763
Living cell proportion (a value relative to CCK8) ([4]; TMZ 300 μM): 0.724
Living cell proportion (a value relative to CCK8) ([4]; TMZ 400 μM): 0.7183
Living cell proportion (a value relative to CCK8) ([4]; TMZ 600 μM): 0.5489
Living cell proportion (a value relative to CCK8) ([4]; TMZ 800 μM): 0.345
Living cell proportion (a value relative to CCK8) ([4]; TMZ 1000 μM): 0.3175
